# Laboratory results published in US11530220B2, “Substituted imidazo[1,5-a]pyrazines and [1,2,4]triazolo[4,3-a]pyrazines for the modulation of AhR” (IDEAYA BIOSCIENCES, INC., priority 2018, dated 2022).
# pIC50: −log10 of the molar value. Read-outs that look alike come from different tables or passages of the source.
# Target: T1, hAhR (Homo sapiens, UniProt P35869)
# T1 construct: Stably integrated DRE-luciferase cell lines were generated by transducing the both cell lines with Cignal XRE luciferase reporter (Qiagen) lentiviral particles; endogenous in cells; host or cells: HEPG2 (human hepatoma) with stably integrated XRE/DRE-luciferase reporter
# T1 sequence (P35869 11-848): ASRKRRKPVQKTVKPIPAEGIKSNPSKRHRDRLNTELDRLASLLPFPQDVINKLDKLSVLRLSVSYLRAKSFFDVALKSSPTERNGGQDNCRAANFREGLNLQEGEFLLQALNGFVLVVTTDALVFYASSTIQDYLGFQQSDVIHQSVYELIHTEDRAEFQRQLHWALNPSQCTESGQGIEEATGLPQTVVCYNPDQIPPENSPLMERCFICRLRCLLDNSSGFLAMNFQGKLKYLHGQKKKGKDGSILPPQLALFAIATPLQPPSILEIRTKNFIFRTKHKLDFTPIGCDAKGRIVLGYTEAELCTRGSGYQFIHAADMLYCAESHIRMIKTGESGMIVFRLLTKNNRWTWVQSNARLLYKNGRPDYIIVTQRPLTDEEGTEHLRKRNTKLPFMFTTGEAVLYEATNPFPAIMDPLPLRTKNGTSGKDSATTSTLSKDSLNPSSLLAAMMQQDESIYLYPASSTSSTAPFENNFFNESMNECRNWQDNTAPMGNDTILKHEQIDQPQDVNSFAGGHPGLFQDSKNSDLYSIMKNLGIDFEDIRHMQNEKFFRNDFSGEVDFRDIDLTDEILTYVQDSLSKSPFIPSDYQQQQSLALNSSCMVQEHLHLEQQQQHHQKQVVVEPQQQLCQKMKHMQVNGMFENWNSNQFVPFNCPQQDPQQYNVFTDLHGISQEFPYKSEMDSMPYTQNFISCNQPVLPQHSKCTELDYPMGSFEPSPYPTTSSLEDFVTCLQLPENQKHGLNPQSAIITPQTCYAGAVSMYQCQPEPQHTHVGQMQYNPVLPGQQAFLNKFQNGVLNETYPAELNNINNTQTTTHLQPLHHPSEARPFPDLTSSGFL
# Experiment: DRE-luciferase transcriptional assay, antagonist mode, in HEPG2 DRE-Luc cells stimulated with TCDD
# Format: cell-based
# Settings: for Emax: read-out: HEPG2 % Max Inhibition
# Method: HEPG2 and HEPA1C1C7 cells were maintained in MEM and αMEM without nucleosides supplemented with 10% heat inactivated FBS respectively. Stably integrated DRE-luciferase cell lines were generated by transducing the both cell lines with Cignal XRE luciferase reporter (Qiagen) lentiviral particles according to the manufacturer protocol. For both cell lines stably integrated reporter cell lines were selected for the presence of 2 μg/mL puromycin. Following selection of stably integrated cell line pools, clonal cell lines were isolated by limiting dilution in 96-well plates. Transcriptional assays were performed by seeding 100 μL of cells at a density of 250,000 or 100,000 cells/mL, for HEPG2 and HEPA1C1C7 DRE-Luc cells respectively, into 96-well cell culture plates in OptiMEM supplemented with 0.5% heat inactivated FBS and allowed to attach overnight. For antagonist assays, the compounds were added in a semi-log dose response using a D300e Digital Dispenser (Tecan) followed normalization with vehicle (DMSO). Immediately following compound addition […] of 2,3,7,8-Tetrachlorodibenzo-p-dioxin (TCDD) was added to the cells to a final concentration of 3 nM or 0.3 nM for the HEPG2 and HEPA1C1C7 DRE-Luc cells respectively. Following 24 h incubation the medium was removed and the cells were lysed in 25 μL of Reporter Lysis Buffer (Promega). Firefly luciferase activity was measured immediately following the addition of 50 μL Luciferase Assay Reagent (Promega). The percent maximal activity for each point was determined using the following equation: 100−(RLUsample−RLUvehicle−TCDD)/(RLUvehicle+TCDD RLUvehicle−TCDD)*100. The relative IC50, defined as the compound concentration required to reduce the TCDD induced response between the top and bottom plateau of each individual dose response curve by half, for each compound was determined using Prism 7 (GraphPad Software).
# [1] = HEPG2 DRE-Luc cells, 3 nM TCDD, 24 h incubation
# [2] = HEPG2 DRE-Luc cells, 3 nM TCDD, 24 h incubation, relative IC50, read-out: IC50 hAhR (antagonist mode)
Emax [1] [%],pIC50 [2],Structure (SMILES),pIC50,"Emax (HepG2, 24 h) [%]"
,,CC(C)c1cnc2c(NCCn3ccc4ccccc43)nc(-c3cncc(F)c3)cn12 [Example 29],6.00 to 6.30,100
100,6.00 to 6.30,Cc1nccn1-c1cn2c(C(C)C)cnc2c(N[C@H](C)Cc2c[nH]c3ccccc23)n1 [Example 17a],,
99,,"Cc1nccn1-c1cn2c(C(C)C)cnc2c(NCCc2c[nH]c3ccc(F)cc23)n1 [Example 13, [2-(5-fluoroindol-3-yl)ethyl][3-isopropyl-6-(2-methylimidazolyl)(4-hydroimidazo[1,2-a]-pyrazin-8-yl)]amine]",,
100,> 6.70,"Cc1nccn1-c1cn2c(C(C)C)cnc2c(NCCc2c[nH]c3cc(F)cc(F)c23)n1 [Example 22, [2-(4,6-difluoroindol-3-yl)ethyl][3-isopropyl-6-(2-methylimidazolyl)(4-hydroimidazo[1,2-a]pyrazin-8-yl)]amine]",,
